Test results as given in article PMC12247152, “Nature‐Inspired Compounds Targeting Escherichia coli WrbA as Biofilm‐Modulating Agents: Computational Design, Synthesis, and Biological Evaluation” (Archiv Der Pharmazie, 2025).

What follows are compounds tested against T1, WrbA (Escherichia coli, UniProt P0A8G6) (assay: microscale thermophoresis (MST)). Details: read-out: K d ± confidence.
T1 construct: recombinant WrbA protein
T1 sequence (P0A8G6 2-198): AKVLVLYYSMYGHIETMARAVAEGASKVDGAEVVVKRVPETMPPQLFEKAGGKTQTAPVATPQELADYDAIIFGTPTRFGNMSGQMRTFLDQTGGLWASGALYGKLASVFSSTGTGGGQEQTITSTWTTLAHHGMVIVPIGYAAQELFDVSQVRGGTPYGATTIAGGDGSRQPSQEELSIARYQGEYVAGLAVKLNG
Type: binding
With `CC1(C)CC(=O)c2c(O)cc(OCC(N)=O)cc2O1` [1a, 2‐[(5‐Hydroxy‐2,2‐dimethyl‐4‐oxochroman‐7‐yl)oxy]acetamide] the Kd was 18.7 ± 6.3 µM.
`CC1(C)CC(=O)c2c(O)cc(OCC(=O)NCCNCc3ccccc3)cc2O1` [1c, N‐[2‐(Benzylamino)ethyl]‐2‐[(5‐hydroxy‐2,2‐dimethyl‐4‐oxochroman‐7‐yl)oxy]acetamide] was tested, and the Kd was 1.4 ± 0.7 µM.
`CC1(C)CC(=O)c2c(O)cc(OCC(=O)NCc3cccc(Cl)c3)cc2O1` [1d, N‐(3‐Chlorobenzyl)‐2‐[(5‐hydroxy‐2,2‐dimethyl‐4‐oxochroman‐7‐yl)oxy]acetamide] gave a Kd of 5 ± 1.8 µM.
`CC1(C)CC(=O)c2c(O)cc(OCC(=O)NCc3cccc4ccccc34)cc2O1` [1e, 2‐[(5‐Hydroxy‐2,2‐dimethyl‐4‐oxochroman‐7‐yl)oxy]‐N‐(naphthalen‐1‐ylmethyl)acetamide] showed a Kd of 2.1 ± 1.3 µM.
